pIC50: −log10 of the molar value.
Legend:
HSV-1 (SC16) = assay: Treatment of murine HSV-1 infection: ear pinna thickness; type: in vivo, BALB/c mice; conditions: result in words; casuarine at both doses (15 and 150 mg/kg i.p.); famciclovir via drinking water 1 mg/ml
MCF-7 cells = assay: Effect on glycosylation of breast cancer cells; type: cell-based; conditions: MCF-7, 0.75 mM; difference from untreated cells at the 62 and 86 hour time points
Procedure: MCF-7 cells (European Collection of Cell Cultures Ref. 86012803) were taken from liquid nitrogen stock, thawed at room temperature and transferred to 10 ml Dulbeccos Modified Eagle's Medium with Hams F12, 15 mM Hepes and L-glutamine (DMEM: Cambrex Cat. No. BE12-719F) supplemented with 10% v/v foetal calf serum (FCS: BioWest Labs Cat. No. S02755, Lot. No. S1800). The FCS was pre-filtered through a 0.2 μm steril filter.
The cells were then centrifuged at 1,500 rpm in a Centaur bench-top centrifuge and the supernatant removed. The cells were reconstituted in fresh media and seeded into two T75 cm^3 Nunclon tissue culture flasks and allowed to settle overnight at 37° C. in a 5% CO2 incubator. The flasks were wrapped in cling film to prevent cross-contamination and the following day the media was changed to include the antibiotics penicillin and streptomycin as a precautionary measure against infection (at concentrations of 1 mg/cm^3 and 5 mg/cm^3, respectively). […]
The cells were harvested using a non-enzymatic method. At each of the time points the cells were viewed under the inverted light microscope and the morphology evaluated. […] The number of cells was then counted in a haemocytometer and cell viability evaluated by mixing 0.1 cm^3 of each cell suspension with a drop of trypan blue solution. […]
Evaluated using the BioRad protein assay according to the manufacturer's instructions. […]

[1] = system: N-acetyl-β-D-glucosaminidase; assay: Glycosidase inhibition, N-acetyl-β-D-glucosaminidase; type: biochemical, Bovine kidney; conditions: 1 mg/ml
Procedure: (§1) All enzymes were purchased from Sigma, as were the appropriate p-nitrophenyl substrates. Assays were carried out in microtitre plates. Enzymes were assayed in 0.1 M citric acid/0.2M di-sodium hydrogen phosphate (McIlvaine) buffers at the optimum pH for the enzyme. All assays were carried out at 20° C. For screening assays the incubation assay consisted of 10 μl of enzyme solution, 10 μl of inhibitor solution (made up in water) and 50 μl of the appropriate 5 mM p-nitrophenyl substrate (3.57 mM final conc.) made up in McIlvaine buffer at the optimum pH for the enzyme.
(§2) The reactions were stopped with 0.4M glycine (pH 10.4) during the exponential phase of the reaction, which was determined at the beginning of the assay using blanks with water, which were incubated for a range of time periods to measure the reaction rate using 5 mM substrate solution. Endpoint absorbances were read at 405 nm with a Biorad microtitre plate reader (Benchmark). Water was substituted for the inhibitors in the blanks.

[2] = system: Na^+-dependent D-glucose uptake into ovine intestinal brush border membrane vesicles; assay: Effect on glucose transport (competition assay with labelled D-glucose); type: biochemical
[3] = Treatment of murine HSV-1 infection: body weight; type: in vivo, BALB/c mice
[4] = molecular target: rabbit gut mucosa α-D-glucosidase; assay: Inhibition of rabbit gut mucosa α-D-glucosidase; type: biochemical
β-D-galactosidase = assay: Glycosidase inhibition, β-D-galactosidase; type: biochemical, Bovine liver; conditions: 1 mg/ml; second galactosidase line
Procedure: as §1, §2

α-D-glucosidase = assay: Glycosidase inhibition, α-D-glucosidase (Bacillus); type: biochemical, Bacillus stearothermophilus; conditions: 1 mg/ml
Procedure: as §1, §2

[5] = Group 1: 15 mg/kg i.p. daily, day 0
[6] = Group 1: 15 mg/kg i.p. daily, day 1
[7] = Group 1: 15 mg/kg i.p. daily, day 2
[8] = Group 1: 15 mg/kg i.p. daily, day 3
[9] = Group 1: 15 mg/kg i.p. daily, day 4
[10] = Group 1: 15 mg/kg i.p. daily, day 5
[11] = Group 1: 15 mg/kg i.p. daily, day 6
[12] = Group 1: 15 mg/kg i.p. daily, day 7
[13] = Group 1: 15 mg/kg i.p. daily, day 8
[14] = Group 1: 15 mg/kg i.p. daily, day −2
[15] = Group 2: 150 mg/kg i.p. daily, day 0
[16] = Group 2: 150 mg/kg i.p. daily, day 1
[17] = Group 2: 150 mg/kg i.p. daily, day 2
[18] = Group 2: 150 mg/kg i.p. daily, day 3
[19] = Group 2: 150 mg/kg i.p. daily, day 4
[20] = Group 2: 150 mg/kg i.p. daily, day 5
[21] = Group 2: 150 mg/kg i.p. daily, day 6
[22] = Group 2: 150 mg/kg i.p. daily, day 7
[23] = Group 2: 150 mg/kg i.p. daily, day 8
[24] = Group 2: 150 mg/kg i.p. daily, day −2

## OC[C@@H]1[C@@H](O)[C@H](O)[C@H]2[C@H](O)[C@@H](O)CN21 [casuarine (8), (1R,2R,3R,6S,7S,7aR)-3-(hydroxymethyl)-1,2,6,7-tetrahydroxypyrrolizidine]
HSV-1 (SC16)
  ear thickness response: produced a reduction in ear thickness
MCF-7 cells
  glycan synthesis and/or N-linked glycosylation in breast cancer cells: can inhibit glycan synthesis and/or N-linked glycosylation
[1]
  % inhibition N-acetyl-β-gluc: 14%
[2]; initial rate, control 240
  Glucose uptake: 265 pmol/s/mg
[2]; result in words
  glucose transport: slightly stimulated
[3]; [5]
  Group mean weight: 16.7 g
  Weight (% change): 3.1%
[3]; [6]
  Group mean weight: 17.1 g
  Weight (% change): 5.6%
[3]; [7]
  Group mean weight: 17.1 g
  Weight (% change): 5.6%
[3]; [8]
  Group mean weight: 17.6 g
  Weight (% change): 8.6%
[3]; [9]
  Group mean weight: 17.4 g
  Weight (% change): 7.4%
[3]; [10]
  Group mean weight: 17.6 g
  Weight (% change): 8.6%
[3]; [11]
  Group mean weight: 17.7 g
  Weight (% change): 9.2%
[3]; [12]
  Group mean weight: 17.4 g
  Weight (% change): 7.4%
[3]; [13]
  Group mean weight: 17.7 g
  Weight (% change): 9.3%
[3]; [14]
  Group mean weight: 16.2 g
  Weight (% change): 0%
[3]; [15]
  Group mean weight: 16 g
  Weight (% change): 3.2%
[3]; [16]
  Group mean weight: 16.4 g
  Weight (% change): 5.8%
[3]; [17]
  Group mean weight: 16.3 g
  Weight (% change): 5.2%
[3]; [18]
  Group mean weight: 16.6 g
  Weight (% change): 7.1%
[3]; [19]
  Group mean weight: 16.4 g
  Weight (% change): 5.8%
[3]; [20]
  Group mean weight: 16.8 g
  Weight (% change): 8.4%
[3]; [21]
  Group mean weight: 17 g
  Weight (% change): 9.7%
[3]; [22]
  Group mean weight: 16.7 g
  Weight (% change): 7.7%
[3]; [23]
  Group mean weight: 16.8 g
  Weight (% change): 8.4%
[3]; [24]
  Group mean weight: 15.5 g
  Weight (% change): 0%
[4]
  pIC50: 3.68
β-D-galactosidase
  % inhibition galactosidase: 0%
α-D-glucosidase
  % inhibition gluc (Bacillus): 86%

Reference: US8557859B2, “Immunomodulatory compositions” (Summit (Wales) Limited, priority 2003, dated 2013)
